Structures can show the parent of a compound that is named as a salt.

One experiment has as its target T1, MMP-13 (Homo sapiens, UniProt P45452).
T1 construct: made in house
Put plainly: In-vitro fluorescence assay of MMP-13 activity. In kind it is biochemical. The settings on record: recombinant human catalytic domain of MMP-13; read-out: MMP-13 IC50.

The next experiment has as its target T2, MMP-2 (Homo sapiens, UniProt P08253).
T2 construct: purchased Oncogene Research Products (Calbiochem) PF023
T2 sequence (P08253 110-660): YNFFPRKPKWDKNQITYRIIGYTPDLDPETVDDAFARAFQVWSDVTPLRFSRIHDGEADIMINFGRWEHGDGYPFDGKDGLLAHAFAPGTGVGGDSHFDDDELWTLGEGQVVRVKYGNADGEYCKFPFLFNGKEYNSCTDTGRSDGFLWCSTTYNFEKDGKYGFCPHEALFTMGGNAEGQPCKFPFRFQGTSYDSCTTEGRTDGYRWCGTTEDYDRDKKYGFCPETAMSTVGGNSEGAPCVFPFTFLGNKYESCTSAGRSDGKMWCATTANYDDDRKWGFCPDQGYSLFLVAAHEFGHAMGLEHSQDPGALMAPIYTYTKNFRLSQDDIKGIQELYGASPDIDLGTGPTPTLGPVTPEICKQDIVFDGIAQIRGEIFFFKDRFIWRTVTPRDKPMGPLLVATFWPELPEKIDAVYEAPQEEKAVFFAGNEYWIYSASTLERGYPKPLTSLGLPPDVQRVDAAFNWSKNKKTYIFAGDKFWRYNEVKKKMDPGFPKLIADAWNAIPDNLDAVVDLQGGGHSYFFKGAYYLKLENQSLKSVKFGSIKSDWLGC
Put plainly: In-vitro fluorescence assay of MMP-2 activity. Format: biochemical. The settings on record: recombinant human MMP-2; read-out: MMP-2 IC50.

As a reminder, the IC50 is the concentration at which inhibition is half-maximal. `Cc1c(C(=O)Nc2ccc(-c3ccc(S(=O)(=O)N(C)[C@H](C(=O)O)C(C)C)cc3)cc2)oc2cccc(C#N)c12` [Example 42, L-2-({4′-[(4-Cyano-3-methyl-benzofuran-2-carbonyl)-amino]-biphenyl-4-sulfonyl}-methyl-amino)-3-methyl-butyric acid]: the IC50 on MMP-13 is 41 nM; at MMP-2, 1590 nM.

On to `Cc1c(C(=O)Nc2ccc(-c3ccc(S(=O)(=O)N[C@H](C(=O)O)C(C)C)cc3)cc2)oc2cccc(-c3ccncc3)c12` [Example 112, (S)-3-Methyl-2-{4′-[(3-methyl-4-pyridin-4-yl-benzofuran-2-carbonyl)-amino]-biphenyl-4-sulfonylamino}-butyric acid], for which the results for the IC50 on MMP-13 and on MMP-2 were 8.5 nM and 2670 nM, respectively.

With `CC(C)Oc1cccc2oc(C(=O)Nc3ccc(-c4ccc(S(=O)(=O)N[C@H](C(=O)O)C(C)C)cc4)cc3)cc12` [Example 103, N-[(4′-{[(4-Isopropoxy-1-benzofuran-2-yl)carbonyl]amino}-1,1′-biphenyl-4-yl)sulfonyl]-L-valine], the values for the IC50 on MMP-13 and on MMP-2 were 3.9 nM and 78.4 nM, respectively.

`Cc1c(C(=O)Nc2ccc(-c3ccc(S(=O)(=O)N(C)[C@H](C(=O)O)C(C)C)cc3)cc2)oc2cccc(C(O)CO)c12` (stereo partly drawn) [Example 99, N-{[4′-({[4-(1,2-dihydroxyethyl)-3-methyl-1-benzofuran-2-yl]carbonyl}amino)-1,1′-biphenyl-4-yl]sulfonyl}-N-methyl-L-valine]: the IC50 at MMP-13 was 70 nM; at MMP-2 it was 13200 nM.

As to `CNC(=O)c1cccc2oc(C(=O)Nc3ccc(-c4ccc(S(=O)(=O)N[C@H](C(=O)O)C(C)C)cc4)cc3)c(C)c12` [Example 43A, (L-3-methyl-2-{4′-[(3-methyl-4-methylcarbamoyl-benzofuran-2-carbonyl)-amino]-biphenyl-4-sulfonylamino}-butyric acid triethylamine salt], the IC50 on MMP-13 is 22 nM; on MMP-2 it was 6720 nM.

As to `COc1c(C#N)ccc2oc(COc3ccc(-c4ccc(S(=O)(=O)N[C@H](C(=O)O)C(C)C)cc4)cc3)c(C)c12` [Example 143, L-2-[4′-(5-Cyano-4-methoxy-3-methylbenzofuran-2-ylmethoxy)-biphenyl-4-sulfonylamino]-3-methyl butyric acid], the IC50 on MMP-13 came out at 1.2 nM; on MMP-2, 64 nM.

For `Cc1c(C(=O)Nc2ccc(-c3ccc(S(=O)(=O)N[C@H](C(=O)O)C(C)C)cc3)cc2)oc2cccc(N(C)C)c12` [Example 62, L-2-{4′-[(4-Dimethylamino-3-methyl-benzofuran-2-carbonyl)-amino]-biphenyl-4-sulfonylamino}-3-methyl-butyric acid], the IC50 on MMP-13 was 6.5 nM; at MMP-2 it was 5110 nM.

Regarding `Cc1c(C(=O)Nc2ccc(-c3ccc(S(=O)(=O)N[C@H](C(=O)O)C(C)C)cc3)cc2)oc2cccc(OC(C)C)c12` [Example 108, (S)-2-{4′-[(4-Isopropoxy-3-methyl-benzofuran-2-carbonyl)-amino]-biphenyl-4-sulfonylamino}-3-methyl-butyric acid], the IC50 on MMP-13 is 13 nM; on MMP-2, 4290 nM.

Regarding `Cc1c(C(=O)Nc2ccc(-c3ccc(S(=O)(=O)N[C@H](C(=O)O)C(C)C)cc3)cc2)oc2cccc(-c3nn[nH]n3)c12` [Example 56, L-3-Methyl-2-(4′-{[3-methyl-4-(2H-tetrazol-5-yl)-benzofuran-2-carbonyl]-amino}-biphenyl-4-sulfonylamino)-butyric acid], the IC50 on MMP-13 was determined as 13 nM; on MMP-2, 13300 nM.

On to `CC(C)[C@H](NS(=O)(=O)c1ccc(-c2ccc(NC(=O)c3nc4ccccc4[nH]3)cc2)cc1)C(=O)O` [Example 52, L-2-{4′-[(1H-Benzoimidazole-2-carbonyl)-amino]-biphenyl-4-sulfonylamino}-3-methyl-butyric acid], for which the IC50 on MMP-13 and on MMP-2 was 0.4 nM each time.

For the compound `COc1c(Cl)ccc2oc(COc3ccc(-c4ccc(S(=O)(=O)N[C@H](C(=O)O)C(C)C)cc4)cc3)c(C)c12` [Example 142, L-2-[4′-(5-Chloro-4-methoxy-3-methylbenzofuran-2-ylmethoxy)-biphenyl-4-sulfonylamino]-3-methyl butyric acid], the IC50 turned out to be 2.1 nM on MMP-13 and 130 nM at MMP-2.

On to `CC(C)[C@H](NS(=O)(=O)c1ccc(-c2ccc(NC(=O)c3nc4ccccc4o3)cc2)cc1)C(=O)O` [Example 127, (S)-3-Methyl-2-{4′-[(benzooxazole-2-carbonyl)-amino]-biphenyl-4-sulfonylamino}-butyric acid], for which the results for the IC50 at MMP-13 and at MMP-2 were 0.8 nM and 47 nM, respectively.

For `COc1c(C#N)ccc2oc(C(=O)Nc3ccc(-c4ccc(S(=O)(=O)N[C@H](C(=O)O)C(C)C)cc4)cc3)c(C)c12` [Example 124, (S)-2-{4′-[(5-Cyano-4-methoxy-3-methyl-benzofuran-2-carbonyl)-amino]-biphenyl-4-sulfonylamino}-3-methyl-butyric acid], the IC50 at MMP-13 is 3 nM; at MMP-2, 522 nM.

In the case of `Cc1cccc2oc(C(=O)Nc3ccc(-c4ccc(S(=O)(=O)N[C@H](C(=O)O)C(C)C)cc4)cc3)nc12` [Example 128, (S)-3-Methyl-2-{4′-[(4-methyl-benzooxazole-2-carbonyl)-amino]-biphenyl-4-sulfonylamino}-butyric acid], the IC50 is 2.8 nM at MMP-13 and 59.5 nM on MMP-2.

In the case of `Cc1c(C(=O)Nc2ccc(-c3ccc(S(=O)(=O)N[C@H](C(=O)O)C(C)C)cc3)cc2)oc2cccc(C(O)CO)c12` (stereo partly drawn) [Example 97, N-{[4′-({[4-(1,2-dihydroxyethyl)-3-methyl-1-benzofuran-2-yl]carbonyl}amino)-1,1′-biphenyl-4-yl]sulfonyl}-L-valine], the IC50 at MMP-13 was 14 nM; on MMP-2, 2860 nM.

In the case of `CNc1cccc2oc(C(=O)Nc3ccc(-c4ccc(S(=O)(=O)N[C@H](C(=O)O)C(C)C)cc4)cc3)c(C)c12` [Example 60, L-3-Methyl-2-{4′-[(3-methyl-4-methylamino-benzofuran-2-carbonyl)-amino]-biphenyl-4-sulfonylamino}-butyric acid], the IC50 at MMP-13 was found to be 8 nM; on MMP-2 it was 886 nM.

For the compound `Cc1c(C(=O)Nc2ccc(-c3ccc(S(=O)(=O)N[C@H](C(=O)O)C(C)C)cc3)cc2)oc2cccc(N3CCCS3(=O)=O)c12` [Example 73, L-2-(4′-{[4-(1,1-Dioxo-1λ^6-isothiazolidin-2-yl)-3-methyl-benzofuran-2-carbonyl]-amino}-biphenyl-4-sulfonylamino)-3-methyl-butyric acid], the IC50 at MMP-13 is 11.9 nM; on MMP-2 it was 4770 nM.

`Cc1c(C(=O)Nc2ccc(-c3ccc(S(=O)(=O)N[C@H](C(=O)O)C(C)C)cc3)cc2)oc2cccc(N)c12` [Example 61, L-2-{4′-[(4-Amino-3-methyl-benzofuran-2-carbonyl)-amino]-biphenyl-4-sulfonylamino}-3-methyl-butyric acid]: the IC50 at MMP-13 stood at 4.3 nM; on MMP-2 it was 323 nM.

As for `COC(C)c1cccc2oc(C(=O)Nc3ccc(-c4ccc(S(=O)(=O)N[C@H](C(=O)O)C(C)C)cc4)cc3)c(C)c12` (stereo partly drawn) [Example 101, N-{[4′-({[4-(1-methoxyethyl)-3-methyl-1-benzofuran-2-yl]carbonyl}amino)-1,1′-biphenyl-4-yl]sulfonyl}-L-valine], the IC50 on MMP-13 was determined as 5.8 nM; at MMP-2, 2000 nM.

Take `CCc1cccc2oc(COc3ccc(-c4ccc(S(=O)(=O)N[C@H](C(=O)O)C(C)C)cc4)cc3)c(C)c12` [Example 146, L-2-[4′-(4-Ethyl-3-methylbenzofuran-2-ylmethoxy)-biphenyl-4-sulfonylamino]-3-methyl butyric acid]: the IC50 on MMP-13 stood at 1.2 nM; on MMP-2, 207 nM.

Take `CC(C)[C@H](NS(=O)(=O)c1ccc(-c2ccc(NC(=O)c3cc4ccccc4s3)cc2)cc1)C(=O)O` [Example 12, 4′-[(Benzo[β]thiophene-2-carbonyl)-amino]-biphenyl-4-sulfonyl-L-valine]: the IC50 at MMP-13 is 6.2 nM; on MMP-2, 149 nM.

As to `COCCc1cccc2oc(C(=O)Nc3ccc(-c4ccc(S(=O)(=O)N[C@H](C(=O)O)C(C)C)cc4)cc3)c(C)c12` [Example 102, N-{[4′-({[4-(2-methoxyethyl)-3-methyl-1-benzofuran-2-yl]carbonyl}amino)-1,1′-biphenyl-4-yl]sulfonyl}-L-valinate], the IC50 at MMP-13 is 5.7 nM; on MMP-2, 1520 nM.

Consider `Cc1c(C(=O)Nc2ccc(-c3ccc(S(=O)(=O)N[C@H](C(=O)O)C(C)C)cc3)cc2)oc2cccc(CO)c12` [Example 92, N-{[4′-({[4-(Hydroxymethyl)-3-methyl-1-benzofuran-2-yl]carbonyl}amino)-1,1′-biphenyl-4-yl]sulfonyl}-L-valine], for which the IC50 was determined as 25 nM at MMP-13 and 3760 nM at MMP-2.

Take `Cc1c(C(=O)Nc2ccc(-c3ccc(S(=O)(=O)N[C@H](C(=O)O)C(C)C)cc3)cc2)oc2cccc(CCC(C)(C)C)c12` [Example 57, L-2-(4′-{[^4-(3,^3-Dimethyl-butyl)-3-methyl-benzofuran-2-carbonyl]-amino}-biphenyl-4-sulfonylamino)-3-methyl-butyric acid]: the figures for the IC50 at MMP-13 and on MMP-2 were 93 nM and 7000 nM, respectively.

The record behind these values is patent US7420001B2 (Wyeth, priority 2003, dated 2008).
